Reference: patent US10668048B2, “Compounds for inhibiting bacterial growth via phosphatidylglycerol binding” (Wichita State University, priority 2016, dated 2020)
In brackets after ≈: the same amount, converted by molar mass.

How the values were obtained:
[1] = Liptin-PG binding in solution (ITC and/or 1H NMR titration); conditions: for binding constant for PG (Ka): in DMF solution, prior research
Procedure: The lipid binding ability of liptins 1-3 (FIG. 2A) have been investigated in solution using isothermal titration calorimetry (ITC) and/or ^1H NMR. Stoichiometry of binding was accomplished with Job plots using ^1H NMR. […] The use of organic solvents allowed the determination of binding motif using ^1H NMR.
Liptins 1b, 1e, 2c, 2d, 3a, 3c in DMF/5% CHCl3; 3e in 50% DMSO, 45% CHCl3, 5% CH3OH.
Liptins 1h and 1i 40% DMSO, 60% CHCl3, 3f in 20% DMSO, 80% CHCl3.

MRSA [2] = experiment: MBC in cation-adjusted Muller Hinton culture; assay type: cell-based, Methicillin-resistant S. aureus
Procedure: (§1) Minimum bactericidal concentration (MBC) were determined in cation-adjusted Muller Hinton culture. Standard CLSI protocol for serial dilutions of liptin concentrations were used to determine the MBC, starting at 0.01 OD. Two different experimental cultures were used and each data point measured in triplicate.

Staphylococcus aureus [3] = experiment: MIC in cation-adjusted Muller Hinton culture; assay type: cell-based; conditions: no growth after 24 hours
Procedure: (§2) MICs were determined in cation-adjusted Muller Hinton culture. Standard CLSI protocol for serial dilutions of liptin concentrations were used to determine the MIC, starting at 0.01 OD. Two different experimental cultures were used and each data point measured in triplicate.

Mycobacterium smegmatis [4] = experiment: MIC in cation-adjusted Muller Hinton culture; assay type: cell-based; conditions: no growth after 24 hours
Procedure: as §2

Acinetobacter baumannii [5] = experiment: MIC in cation-adjusted Muller Hinton culture; assay type: cell-based; conditions: no growth after 24 hours
Procedure: as §2

Pseudomonas aeruginosa = experiment: MIC in cation-adjusted Muller Hinton culture; assay type: cell-based; conditions: no growth after 24 hours
Procedure: as §2

Klebsiella pneumoniae [6] = experiment: MIC in cation-adjusted Muller Hinton culture; assay type: cell-based; conditions: no growth after 24 hours
Procedure: as §2

Escherichia coli [7] = experiment: MIC in cation-adjusted Muller Hinton culture; assay type: cell-based; conditions: no growth after 24 hours
Procedure: as §2

MRSA [8] = experiment: MIC in cation-adjusted Muller Hinton culture; assay type: cell-based, Methicillin-resistant S. aureus; conditions: no growth after 24 hours
Procedure: as §2

Staphylococcus aureus [9] = experiment: MBC in cation-adjusted Muller Hinton culture; assay type: cell-based
Procedure: as §1

Mycobacterium smegmatis [10] = experiment: MBC in cation-adjusted Muller Hinton culture; assay type: cell-based
Procedure: as §1

Acinetobacter baumannii [11] = experiment: MBC in cation-adjusted Muller Hinton culture; assay type: cell-based
Procedure: as §1

Klebsiella pneumoniae [12] = experiment: MBC in cation-adjusted Muller Hinton culture; assay type: cell-based
Procedure: as §1

Escherichia coli [13] = experiment: MBC in cation-adjusted Muller Hinton culture; assay type: cell-based
Procedure: as §1

[14] = NMR titrations, DMF/5% CHCl3, 1:1 binding stoichiometry
[15] = ITC, DMF/5% CHCl3, 1:1 binding stoichiometry

Cc1ccc2c(c1)CNCCCCNCc1cc(C)ccc1OCCCCO2 [Liptin 1e]
Ka [1, 14]: 250 M⁻¹

Cc1ccc2c(c1)CNCCCNCc1cc(C)ccc1OCCCCCO2 [Liptin 1b]
Ka [1, 14]: 200 M⁻¹

O=C(NCCOCc1ccccc1)Nc1ccccc1-c1c2nc(c(-c3ccccc3NC(=O)NCCOCc3ccccc3)c3ccc([nH]3)c(-c3ccccc3NC(=O)NCCOCc3ccccc3)c3nc(c(-c4ccccc4NC(=O)NCCOCc4ccccc4)c4ccc1[nH]4)C=C3)C=C2 [Liptin 3a]
Ka [1, 15]: 2100 M⁻¹

O=C(NCc1cc(CCCO)cc2c1OCCCOc1c(cc(CCCO)cc1CNC(=O)Nc1ccccc1)CCC2)Nc1ccccc1 [Liptin 2b]
binding constant for PG (Ka) [1]: no significant binding

O=C(NCc1cc(CCCO)cc2c1OCCCCOc1c(cc(CCCO)cc1CNC(=O)Nc1ccccc1)CCC2)Nc1ccccc1 [Liptin 2a]
binding constant for PG (Ka) [1]: no significant binding

CCCCCCNC(=O)CCc1ccc2c(c1)CNCCCNCc1cc(CCC(=O)NCCCCCC)ccc1OCCCCO2 [Liptin 1i]
Ka ([1]; ITC or NMR titrations, 40% DMSO, 60% CHCl3): 1500 M⁻¹ | MBC (MRSA [2]): 11.5 µM (≈ 7.49 µg/mL) | MIC (Staphylococcus aureus [3]): 3 µM (≈ 1.95 µg/mL) | MIC (Mycobacterium smegmatis [4]): 3 µM (≈ 1.95 µg/mL) | MIC (Acinetobacter baumannii [5]): 3.5 µM (≈ 2.28 µg/mL) | MIC (Pseudomonas aeruginosa): 12 µM (≈ 7.81 µg/mL) | MIC (Klebsiella pneumoniae [6]): 4 µM (≈ 2.6 µg/mL) | MIC (Escherichia coli [7]): 3 µM (≈ 1.95 µg/mL) | MIC (MRSA [8]): 3.5 µM (≈ 2.28 µg/mL) | MBC (Staphylococcus aureus [9]): 10.5 µM (≈ 6.83 µg/mL) | MBC (Mycobacterium smegmatis [10]): 10.5 µM (≈ 6.83 µg/mL) | MBC (Acinetobacter baumannii [11]): 11.5 µM (≈ 7.49 µg/mL) | MBC (Klebsiella pneumoniae [12]): 12 µM (≈ 7.81 µg/mL) | MBC (Escherichia coli [13]): 14 µM (≈ 9.11 µg/mL)

CCOCCOCCOCCNC(=O)Nc1ccccc1-c1c2nc(c(-c3ccccc3NC(=O)NCCOCCOCCOCC)c3ccc([nH]3)c(-c3ccccc3NC(=O)NCCOCCOCCOCC)c3nc(c(-c4ccccc4NC(=O)NCCOCCOCCOCC)c4ccc1[nH]4)C=C3)C=C2 [Liptin 3c]
Ka [1, 15]: 3700 M⁻¹

O=C(CNCc1ccccc1)Nc1ccccc1-c1c2nc(c(-c3ccccc3NC(=O)CNCc3ccccc3)c3ccc([nH]3)c(-c3ccccc3NC(=O)CNCc3ccccc3)c3nc(c(-c4ccccc4NC(=O)CNCc4ccccc4)c4ccc1[nH]4)C=C3)C=C2 [Liptin 3f]
Ka ([1]; NMR titrations, 20% DMSO, 80% CHCl3): 2800 M⁻¹

CCCCCCNC(=O)CCc1ccc2c(c1)CNCCCCNCc1cc(CCC(=O)NCCCCCC)ccc1OCCCCO2 [Liptin 1j]
MBC (MRSA [2]): 15 µM (≈ 9.97 µg/mL) | MIC (Staphylococcus aureus [3]): 4 µM (≈ 2.66 µg/mL) | MIC (Mycobacterium smegmatis [4]): 3.5 µM (≈ 2.33 µg/mL) | MIC (Acinetobacter baumannii [5]): 4 µM (≈ 2.66 µg/mL) | MIC (Pseudomonas aeruginosa): 14 µM (≈ 9.31 µg/mL) | MIC (Klebsiella pneumoniae [6]): 3.5 µM (≈ 2.33 µg/mL) | MIC (Escherichia coli [7]): 3.5 µM (≈ 2.33 µg/mL) | MIC (MRSA [8]): 4.5 µM (≈ 2.99 µg/mL) | MBC (Staphylococcus aureus [9]): 15.5 µM (≈ 10.3 µg/mL) | MBC (Mycobacterium smegmatis [10]): 12 µM (≈ 7.98 µg/mL) | MBC (Acinetobacter baumannii [11]): 12.5 µM (≈ 8.31 µg/mL) | MBC (Klebsiella pneumoniae [12]): 13 µM (≈ 8.64 µg/mL) | MBC (Escherichia coli [13]): 15 µM (≈ 9.97 µg/mL)
